Read-outs that look alike come from different tables or passages of the source.
Tested on: phagocytosis of anti-D-opsonized Rh(D+) red cells by monocytes
Assay: monocyte monolayer assay (MMA), in vitro phagocytosis assay
Assay type: cell-based, human
Parameters: key to Phagocytic index (PI): number of phagocytosed RBCs per 100 monocytes
Details: for Phagocytic index (PI): PI = (# of phagocytic red blood cells)/(300 monocytes) * 100; for IC50: 0.5-100 μM, read-out: IC50 for inhibition of phagocytosis
Method: The MMA to screen compounds for their ability to inhibit phagocytosis was performed as previously described (Purohit, M. K. et al., Bioorg. Med. Chem. Lett. 2013; 23:2324-7; and Purohit, M. K. et al., Bioorg. Med. Chem. 2014; 22:2739-52.). Briefly, Mononuclear cells (PBMCs) were layered onto chamber slides and monocytes purified by adherence after 1 hr at 37° C. with 5% CO2. Drugs were solubilized in 100% DMSO and then diluted in Roswell Park Memorial Institute (RPMI) to the final concentration of 5 μM, as previously reported (8,9). Corresponding dimethyl sulfoxide (DMSO) volumes in RPMI medium were used as a control. After one hour, indicator Rh-positive red cells opsonized with anti-RhD were added to the chamber slides and then further incubated for 2 hours before fixing and counting phagocytosed red blood cells (RBCs) using phase-contrast microscopy. As a positive control for inhibition, Intravenous immunoglobulin (IVIg) was used, known to inhibit phagocytosis due to blocking of FcγRs. The phagocytosis index (PI) was determined as the number of phagocytosed RBCs in 100 monocytes. The percent inhibition of phagocytosis was determined by comparing the PI in each treated sample to the PI in the untreated sample, which was determined by normalizing the PI concentration in each treated sample (phagocytosis of opsonized RBCs with vehicle only, representing 100 percent phagocytosis.
Concentrations included 100 μM, 50 μM, 25 μM, 10 μM, 5 μM, 2.5 μM, 1 μM, and 0.5 μM.
The 80 selected pyrazole core compounds were screened using a concentration of 5 μM in the in vitro phagocytosis assay, referred to as the monocyte monolayer assay (MMA). Compounds were compared to a standard intravenous immunoglobulin (IVIg) at a concentration of 1 mg/mL.

[1] = Homo sapiens, Monocyte, 5 μM compound, screening of the 80 compounds, read-out: Average inhibition (% ± standard deviation)
[2] = Homo sapiens, Monocyte, 5 μM, anti-D-opsonized Rh(D+) red cells, read-out: Inhibition percentage
[3] = Homo sapiens, Monocyte, dose-inhibitory response

Row | IC50 [3] | EC50 [3] | SMILES | inhibition at 5 µM [1] | Phagocytic index (PI) (5 μM) | inhibition at 5 µM [2]
1 |  |  | CCOC(=O)c1cnn(-c2ccccc2)c1NC(=O)CSc1nc(SC)ns1 [KB-171] | 7 ± 0.39% |  | 
2 |  |  | COc1ccc(S(=O)(=O)n2cccn2)cc1C(C)(C)C [KB-173] | -8 ± 8.88% |  | 
3 |  |  | Cc1nn(C(=O)N(C)C)c(C)c1CN1C(=O)c2ccccc2C1=O [KB-174] | 39 ± 9.53% |  | 
4 |  |  | Cc1coc(C)c1C1=NN(S(C)(=O)=O)C(c2cccs2)C1 (centres unmarked) [KB-175] | 50 ± 1.45% | 15 | 50%
5 |  |  | COc1cc(S(=O)(=O)n2cccn2)c(OC)cc1Cl [KB-176] | -10 ± 7.06% |  | 
6 |  |  | CCc1cccc(NS(=O)(=O)c2cnn(CC)c2C)c1 [KB-177] | 4 ± 9.76% |  | 
7 |  |  | COc1ccc(CNC(=O)c2c(Cl)cnn2C)cc1OC [KB-178] | 53 ± 5.11% | 29 | 53%
8 |  |  | CCn1cc(S(=O)(=O)NCCc2ccc(OC)c(OC)c2)cn1 [KB-179] | 53 ± 1.18% | 14 | 53%
9 |  |  | Cc1nn(C)cc1S(=O)(=O)NCc1ccccc1Cl [KB-180] | -42 ± 8.81% |  | 
10 |  |  | CCOC(=O)c1c(C)nn(-c2nc(C)cc(C)n2)c1N [KB-181] | -11 ± 10.3% | 37 | 45%
11 |  |  | Cn1ccc(C(=O)Nc2ccc3c(c2)OCCO3)n1 [KB-182] | 55 ± 3.65% | 28 | 55%
12 |  |  | Cc1cc(=O)n(CCN2CCOCC2)c2c1c(C)nn2-c1ccccc1 [KB-183] | -28 ± 9.96% |  | 
13 |  |  | CCOC(=O)c1cnn(C)c1NC(=O)C(CC)Sc1cc(C)ncn1 (centres unmarked) [KB-184] | 7 ± 2.92% |  | 
14 |  |  | COc1ccc(-c2cc(C(=O)O)nn2C2CCS(=O)(=O)C2)cc1 (centres unmarked) [KB-185] | -3 ± 3.6% |  | 
15 |  |  | Cc1c(NC(=O)CSc2nc3c(c(=O)[nH]2)CCC3)c(=O)n(-c2ccccc2)n1C [KB-186] | 55 ± 8.43% | 28 | 55%
16 |  |  | COc1ccccc1-n1nc(C(C)=O)c(C(C)=O)c1C [KB-187] | -16 ± 9.33% |  | 
17 |  |  | CC(=O)n1nc(C)c(S(=O)(=O)N2CCCC2)c1C [KB-188] | -26 ± 7.94% |  | 
18 |  |  | Cc1nn(C)c(C)c1-c1cc(C(=O)O)[nH]n1 [KB-189] | 52 ± 4.75% | 30 | 52%
19 |  |  | Cc1nn(-c2ccc3nnc(C)n3n2)c2c1C(c1cccs1)CC(=O)N2 (centres unmarked) [KB-190] | 56 ± 1.24% | 27 | 56%

Row | IC50 [3] | EC50 [3] | SMILES | inhibition at 5 µM [1] | Phagocytic index (PI) (5 μM) | inhibition at 5 µM [2]
20 |  |  | O=c1cc(CSc2nc3ccccc3s2)[nH]c2[nH]n(-c3ccccc3)c(=O)c12 [KB-191] | -23 ± 7.85% |  | 
21 |  |  | Cn1ncc(Br)c1C(=O)N1CCCC1c1ccc(F)cc1 (centres unmarked) [KB-192] | -29 ± 9.54% |  | 
22 |  |  | COc1cc(-c2cc[nH]n2)cc(OC)c1OC [KB-194] | 39 ± 4.96% |  | 
23 |  |  | COc1cccc(-c2cc(C(=O)Nc3cc(C)nn3-c3ccccc3)on2)c1 [KB-195] | 25 ± 6.36% |  | 
24 |  |  | Cc1ccccc1C1CCCN1C(=O)Cn1nc(C(F)(F)F)cc1C (centres unmarked) [KB-196] | 24 ± 5.76% |  | 
25 |  |  | Cc1c(S(=O)(=O)N2CCCC2c2ccccc2Cl)cnn1C(F)F (centres unmarked) [KB-197] | 45 ± 4.97% |  | 
26 | 8.43 µM | > 10 µM | CCn1nccc1C1CCCN1S(=O)(=O)c1cc(C)c(C)cc1C (centres unmarked) [KB-198] | 75 ± 4.76% | 9 | 75%
27 | 227 µM |  | CCn1nccc1C1CCCN1S(=O)(=O)c1cc(C)ccc1C (centres unmarked) [KB-198a] |  |  | 
28 |  |  | CCOC(=O)c1cnn(-c2ncnc3c2cnn3-c2ccc(F)cc2)c1N [KB-199] | 40 ± 5.46% | 40 | 40%
29 |  |  | COc1ccccc1-c1cc(C(=O)Nc2c(C)n(C)n(-c3ccccc3)c2=O)no1 [KB-200] | 31 ± 1.84% |  | 
30 |  |  | CN(C)CCNC(=O)c1cc(-c2ccc(Cl)cc2)nn1-c1ccccc1 [KB-201] | 0% |  | 
31 |  |  | CNC(=O)c1cc(-c2cccs2)[nH]n1 [KB-202] | 33 ± 2.31% |  | 
32 |  |  | O=C(NCc1ccncc1)c1cnn(-c2ccccc2F)c1-n1cccc1 [KB-203] | 27 ± 2.72% |  | 
33 |  |  | O=C(Nc1ccncc1)c1cc(C2CC2)nn1-c1ccccc1 [KB-204] | 36 ± 3.6% |  | 
34 |  |  | CC(CCc1ccccc1)NC(=O)c1cnn(C)c1-n1cccc1 (centres unmarked) [KB-205] | 47 ± 0.98% | 19 | 47%
35 |  |  | CC(C)c1cc(C(=O)Nc2nnc(C3CCCO3)s2)n(-c2ccccc2)n1 (centres unmarked) [KB-206] | 50 ± 5.46% | 18 | 50%
36 |  |  | COCc1nnc(NC(=O)c2cnn(C)c2-n2cccc2)s1 [KB-207] | 14 ± 1.86% |  | 
37 |  |  | Nc1c(C(=O)O)cnn1-c1ccc(F)cc1F [KB-209] | 50 ± 1.02% | 18 | 50%
